Data set [1] addresses Metabotropic glutamate receptor 1 (Homo sapiens, UniProt Q13255). Kind of data set: Activity at human mGluR1 assessed as effect on glutamate-induced calcium ion mobilization by FLIPR. The class given is functional.
Data set [2] concerns the target Metabotropic glutamate receptor 5 (Homo sapiens, UniProt P41594). Kind of data set: Activity at human mGluR5 assessed as effect on glutamate-induced calcium ion mobilization by FLIPR. The class given is functional.
The nature of data set [3]: Intrinsic clearance in rat liver microsomes. It counts as ADME, Microsome. In general terms: Liver microsomes are a subcellular fraction often used to study metabolism.

The term IC50 denotes the concentration at which inhibition is half-maximal. Usually microsomal CLint stands for the rate of metabolic loss divided by the concentration.

Sequence of Metabotropic glutamate receptor 1 (Q13255 whole entry): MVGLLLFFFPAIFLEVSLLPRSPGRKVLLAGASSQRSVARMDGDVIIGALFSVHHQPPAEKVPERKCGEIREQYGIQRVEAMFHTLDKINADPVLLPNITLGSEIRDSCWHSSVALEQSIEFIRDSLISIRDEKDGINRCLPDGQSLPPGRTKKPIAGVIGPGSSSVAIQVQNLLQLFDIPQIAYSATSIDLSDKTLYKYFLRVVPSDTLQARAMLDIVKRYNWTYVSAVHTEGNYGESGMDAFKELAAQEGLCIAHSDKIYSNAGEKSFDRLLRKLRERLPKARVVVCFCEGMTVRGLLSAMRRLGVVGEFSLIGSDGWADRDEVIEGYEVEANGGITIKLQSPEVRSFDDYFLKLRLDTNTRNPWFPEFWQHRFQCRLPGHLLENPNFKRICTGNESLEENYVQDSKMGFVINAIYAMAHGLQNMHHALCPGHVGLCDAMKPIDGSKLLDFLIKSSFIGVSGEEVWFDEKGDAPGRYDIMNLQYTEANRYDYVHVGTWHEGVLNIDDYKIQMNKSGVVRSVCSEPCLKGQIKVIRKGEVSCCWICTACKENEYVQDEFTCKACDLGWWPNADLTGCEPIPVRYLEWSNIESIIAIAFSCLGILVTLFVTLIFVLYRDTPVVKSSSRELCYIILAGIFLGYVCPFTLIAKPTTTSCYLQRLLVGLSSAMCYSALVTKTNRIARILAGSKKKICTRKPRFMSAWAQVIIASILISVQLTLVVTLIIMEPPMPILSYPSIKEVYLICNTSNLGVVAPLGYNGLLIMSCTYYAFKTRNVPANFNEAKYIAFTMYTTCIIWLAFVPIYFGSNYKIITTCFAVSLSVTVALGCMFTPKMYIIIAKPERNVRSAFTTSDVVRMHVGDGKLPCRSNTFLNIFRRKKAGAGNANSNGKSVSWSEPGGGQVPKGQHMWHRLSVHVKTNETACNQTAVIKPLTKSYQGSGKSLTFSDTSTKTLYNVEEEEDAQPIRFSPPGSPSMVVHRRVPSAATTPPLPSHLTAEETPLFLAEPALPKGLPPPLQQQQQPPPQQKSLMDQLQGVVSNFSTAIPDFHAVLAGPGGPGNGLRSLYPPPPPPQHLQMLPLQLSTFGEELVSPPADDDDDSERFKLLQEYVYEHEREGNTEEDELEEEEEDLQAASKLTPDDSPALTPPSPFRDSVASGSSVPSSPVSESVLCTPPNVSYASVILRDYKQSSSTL
Sequence of Metabotropic glutamate receptor 5 (P41594 whole entry): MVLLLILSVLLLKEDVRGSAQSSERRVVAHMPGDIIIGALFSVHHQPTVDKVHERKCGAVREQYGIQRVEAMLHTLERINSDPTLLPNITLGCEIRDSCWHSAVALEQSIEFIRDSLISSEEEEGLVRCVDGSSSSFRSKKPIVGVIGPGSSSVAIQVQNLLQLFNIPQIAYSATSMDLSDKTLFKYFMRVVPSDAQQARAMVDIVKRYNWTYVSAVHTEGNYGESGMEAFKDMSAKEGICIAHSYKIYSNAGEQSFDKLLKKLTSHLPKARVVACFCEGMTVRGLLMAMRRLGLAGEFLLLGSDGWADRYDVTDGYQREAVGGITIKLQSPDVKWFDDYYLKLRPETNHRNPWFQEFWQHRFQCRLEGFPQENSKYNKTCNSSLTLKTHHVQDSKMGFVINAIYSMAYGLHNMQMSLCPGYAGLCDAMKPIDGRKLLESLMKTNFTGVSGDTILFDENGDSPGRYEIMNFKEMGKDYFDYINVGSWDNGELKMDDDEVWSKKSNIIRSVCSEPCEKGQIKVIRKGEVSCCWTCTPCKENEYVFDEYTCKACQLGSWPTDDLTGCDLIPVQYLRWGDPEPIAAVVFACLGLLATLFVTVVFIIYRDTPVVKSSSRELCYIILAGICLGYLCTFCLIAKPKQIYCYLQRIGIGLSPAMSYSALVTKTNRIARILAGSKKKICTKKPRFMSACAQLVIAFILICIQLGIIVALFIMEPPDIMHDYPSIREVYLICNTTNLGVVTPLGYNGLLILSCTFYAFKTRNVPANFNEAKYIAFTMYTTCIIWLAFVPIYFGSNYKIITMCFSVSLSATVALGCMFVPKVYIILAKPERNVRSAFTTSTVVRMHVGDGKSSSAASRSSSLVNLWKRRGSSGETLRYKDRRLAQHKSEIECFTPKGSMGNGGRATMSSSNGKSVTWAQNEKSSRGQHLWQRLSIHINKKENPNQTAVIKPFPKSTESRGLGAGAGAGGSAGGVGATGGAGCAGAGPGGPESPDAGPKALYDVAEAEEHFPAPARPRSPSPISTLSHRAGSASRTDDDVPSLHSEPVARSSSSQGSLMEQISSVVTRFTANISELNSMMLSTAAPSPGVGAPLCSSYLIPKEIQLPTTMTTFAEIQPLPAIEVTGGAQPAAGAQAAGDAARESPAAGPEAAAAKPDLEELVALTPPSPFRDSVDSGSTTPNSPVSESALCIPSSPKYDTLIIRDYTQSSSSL

With `CCC(O)(CO)c1cc(F)cc(OCC#Cc2ccccn2)c1` (stereo not drawn), the IC50 in data set [1] is at least 10 µM; in data set [2] it was 300 nM.

Take `COc1cccc(OCC#Cc2ccccn2)c1`: the IC50 in data set [1] was above 10 µM; in data set [2], 1540 nM.

With `Cc1cccc(C#CCOc2ccc(Cl)cc2)n1`, the IC50 in data set [2] was 102 nM.

With `Cc1ccc(OCC#Cc2cccc(C)n2)cc1`, in data set [2], the IC50 was 115 nM.

Take `COc1cccc(OCC#Cc2cccc(C)n2)c1`: the values for the IC50 in data set [1] and in data set [2] were above 10 µM and 397 nM, respectively.

`Cc1cccc(C#CCOc2cccnc2)n1`: the IC50 in data set [2] was above 10000 nM.

`COc1cccc(OCC#Cc2cccc(OC)n2)c1`: the IC50 in data set [2] is above 10000 nM.

Turning to `COc1cccc(OCC#Cc2nccs2)c1`, the IC50 in data set [2] was above 10000 nM.

In the case of `COc1cccc(OCC#Cc2ncccc2C)c1`, in data set [2], the IC50 is above 10000 nM.

Take `Cc1cccc(C#CCOc2ccc(Cl)c(Cl)c2)n1`: the microsomal CLint in data set [3] is 278 µL/min/mg. Also, in data set [2], the IC50 was 15 nM.

Turning to `Cc1cccc(C#CCOc2ccccc2Cl)n1`, the IC50 in data set [2] is above 3000 nM.

Consider `COc1cccc(OCC#Cc2cnccn2)c1`, for which the IC50 in data set [2] is above 10000 nM.

For the compound `COc1cccc(OCC#Cc2ccncc2)c1`, the half-maximal inhibitory concentration (IC50) in data set [2] was above 10000 nM.

As to `Cc1ccc(OCC#Cc2cccc(C)n2)cn1`, the IC50 in data set [2] was determined as 2490 nM.

Consider `Cc1cccc(C#CCOc2ccccc2)n1`, for which the IC50 in data set [2] was above 10000 nM.

With `Cc1cccc(C#CCOc2cccc([N+](=O)[O-])c2)n1`, the IC50 in data set [2] came out at 416 nM.

Turning to `COc1cccc(OCC#Cc2cc(C)ccn2)c1`, the IC50 in data set [2] was above 10000 nM.

`Cc1cccc(C#CCOc2cc(=O)[nH]c3ccccc23)n1`: the IC50 in data set [2] amounted to 825 nM.

For the compound `COC(=O)c1cncc(OCC#Cc2cccc(C)n2)c1`, the IC50 in data set [2] stood at 1490 nM.

Regarding `COc1ccc(OCC#Cc2cccc(C)n2)cc1`, in data set [2], the IC50 came out at 455 nM.

Regarding `Cc1cccc(C#CCOc2ccc3c(c2)CCCC3)n1`, in data set [2], the IC50 was 36 nM.

Consider `Cc1cccc(C#CCOc2ccc(C(C)C)cc2)n1`, for which the IC50 in data set [2] is 83 nM.

In the case of `Cc1cccc(C#CCOc2cccc(Cl)c2)n1`, the IC50 in data set [2] was 101 nM.

Take `COc1cccc(OCC#Cc2ccc(C)cn2)c1`: the IC50 in data set [2] is 7930 nM.

These data come from ChEMBL document CHEMBL1149354, “A new series of pyridinyl-alkynes as antagonists of the metabotropic glutamate receptor 5 (mGluR5)” (Bioorg Med Chem Lett, 2006).
